This note sets out measurements from US12616203B2, “Use of 3-isoxazolidinones compounds as selective herbicides” (FMC Corporation, priority 2014, dated 2026).

The subject of one data set is purple nutsedge (PN). The data set is described as follows: PRE greenhouse, 2,4-DC + sulfentrazone, % control. It is filed as in vivo, Cyperus rotundus. The conditions noted are these: 28 DAT, g ai/ha by row: r8-16 2,4-DC 50/100/200 (3 rows each) + sulfentrazone 105/210/315 (cycling). As for the experimental part:
(§1) Test compositions containing 2,4-DC Example 1B and sulfentrazone (Spartan® 4F, 39.6% active ingredient, FMC Corp.) and mixtures of 2-(2,4-dichlorophenyl)methyl-4,4-dimethyl-3-isoxazolidinone and sulfentrazone, were diluted with water to provide the appropriate test rate concentration.
(§2) The test weeds were Pennsylvania smartweed (PS) (Polygonum pennsylvanicum), Palmer amaranth (PA) (Amaranthus palmeri), velvetleaf (VL) (Abutilon theophrasti), green foxtail (GF) (Setaria viridis), morningglory (MG) (Ipomoea spp.), yellow nutsedge (YN) (Cyperus esculentus), purple nutsedge (PN) (Cyperus rotundus), and benghal dayflower (BD) (Commelina benghalensis). Crops included in the evaluation were corn, wheat, and cowpea. […]
(§3) The application rates are those shown in Table 3, 3A, an d 3B below for the individual herbicidal solutions and the herbicide compositions of the present invention. […] The control of weeds was evaluated in each experimental test at 28 days after treatment (DAT), 14 DAT for crops. […] Percent weed control was determined by a method similar to the 0 to 100 rating system disclosed in “Research Methods in Weed Science,” 2nd ed., B. Truelove, Ed.; Southern Weed Science Society; Auburn University, Auburn, Ala., 1977.

The subject of another data set is weeds. The experiment in a line: Ex10 PRE greenhouse. The note with it: 28 DAT, weed and rate in the words. It is filed as in vivo. The source says: Treatments 1-12 of 2,4-DC and aclonifen tank-mix combinations follow same rates listed above. […] Sulfentrazone (Spartan 4F® 39.6%) at 280 g ai/ha, pendimethalin (Prowl 3.3®EC, 37.4%) at 784 g ai/ha, or S-metolachlor (Dual II Magnum® 82.4%) at 1084 g ai/ha were applied as commercial standards. Treatments were replicated 3 times and flats were watered after planting but before the treatment and lightly watered after treatment application. Thereafter flats were watered and fertilized routinely. […] Shepherd's-purse was rated at 21 and 28 DAT only, due to delayed emergence.

Another data set deals with benghal dayflower (BD). The experiment in a line: PRE greenhouse, 2,4-DC + sulfentrazone, % control. It is filed as in vivo, Commelina benghalensis. The note with it: 28 DAT, g ai/ha by row: r8-16 2,4-DC 50/100/200 (3 rows each) + sulfentrazone 105/210/315 (cycling). As to the method:
as §1
(§4) The test weeds were Pennsylvania smartweed (PS) (Polygonum pennsylvanicum), Palmer amaranth (PA) (Amaranthus palmeri), velvetleaf (VL) (Abutilon theophrasti), green foxtail (GF) (Setaria viridis), morningglory (MG) (Ipomoea spp.), yellow nutsedge (YN) (Cyperus esculentus), purple nutsedge (PN) (Cyperus rotundus), and benghal dayflower (BD) (Commelina benghalensis). Crops included in the evaluation were corn, wheat, and cowpea.
(§5) For pre-emergence testing, four disposable fiber flats (6″ by 10″) for each rate of application of each herbicide solution were filled with top soil, to which seeds of each species were planted in furrows made by a template pressed on the top of the soil. The furrows with crop/weed seeds were covered with soil and were watered well before application of the test compounds. Flats designated for treatment were placed in a spray chamber having a static platform and a movable sprayer and height of the spray nozzle was 10.5 inches above the soil level. Once the sprayer was calibrated using water for spray volume of 30 gallons per acre, flats were sprayed with sprayer at a speed to receive a coverage equivalent of 30 gallons per acre.
The application rates are those shown in Table 3, 3A, an d 3B below for the individual herbicidal solutions and the herbicide compositions of the present invention. The pre-emergence flats were immediately placed in the greenhouse and watered lightly after treatment for herbicide activation. […] The control of weeds was evaluated in each experimental test at 28 days after treatment (DAT), 14 DAT for crops. […] Percent weed control was determined by a method similar to the 0 to 100 rating system disclosed in “Research Methods in Weed Science,” 2nd ed., B. Truelove, Ed.; Southern Weed Science Society; Auburn University, Auburn, Ala., 1977.

For data set [1], the system named is Pennsylvania smartweed (PS). The data set is described as follows: PRE greenhouse, 2,4-DC + sulfentrazone (Tables 3-3B), % control. It is filed as in vivo, Polygonum pennsylvanicum. The conditions noted are these: 28 DAT, g ai/ha by row: r7-35 2,4-DC 31.2/62.5/125/250/375 (3 rows each) + sulfentrazone 105/210/315 (cycling), r37-41 2,4-DC 31.2/62.5/125/250/375, r42-44 sulfentrazone 105/210/315. As for the experimental part: as §1, §2, §3

For the next data set, the system named is velvetleaf (VL). The experiment in a line: PRE greenhouse, 2,4-DC + sulfentrazone, % control. It is filed as in vivo, Abutilon theophrasti. The conditions noted are these: 28 DAT, g ai/ha by row: r7-35 2,4-DC 31.2/62.5/125/250/375 (3 rows each) + sulfentrazone 105/210/315 (cycling), r37-41 2,4-DC 31.2/62.5/125/250/375, r42-44 sulfentrazone 105/210/315. As for the experimental part:
as §1, §2, §3

Another data set relates to weeds; Sugarcane (CTC20). The experiment in a line: Ex23 PRE greenhouse. The note with it: 28 DAT, weed and rate in the words. As to the method:
(Ipomoea spp). The tested crop in this study was Sugarcane (CTC20).
Sugarcane was direct seeded into 6″ plastic pots using 3-4″ sugarcane setts, oriented bud up, with bud leaf shield removed. 2,4 DC and sulfentrazone were applied alone or combined as tank-mix at each rate mentioned below. […] Treatments were replicated 3 times. […] Thereafter flats were watered and fertilized routinely. […] Visual percent sugarcane injury was recorded at 21 and 28 DAT, using a scale of 0 (no injury, observed as bleaching, stunting or necrosis) to 100 (complete plant death).

The next data set concerns green foxtail (GF). The experiment in a line: PRE greenhouse, 2,4-DC + sulfentrazone, % control. The conditions noted are these: 28 DAT, g ai/ha by row: r7-35 2,4-DC 31.2/62.5/125/250/375 (3 rows each) + sulfentrazone 105/210/315 (cycling). It is filed as in vivo, Setaria viridis. As to the method: as §1, §2, §3
The subject of data set [2] is weeds; corn, wheat, cotton, cowpea, and bush bean. The experiment in a line: Ex42 PRE greenhouse. It is filed as in vivo. The note with it: crop and rate in the words. The source says: Thereafter flats were watered and fertilized routinely.
The next data set deals with yellow nutsedge (YN). The experiment in a line: PRE greenhouse, 2,4-DC + sulfentrazone, % control. The note with it: 28 DAT, g ai/ha by row: r8-16 2,4-DC 50/100/200 (3 rows each) + sulfentrazone 105/210/315 (cycling). It is filed as in vivo, Cyperus esculentus. As to the method: as §1, §4, §5
The application rates are those shown in Table 3, 3A, an d 3B below for the individual herbicidal solutions and the herbicide compositions of the present invention. The pre-emergence flats were immediately placed in the greenhouse and watered lightly after treatment for herbicide activation. Thereafter they were regularly watered and feterilized for the duration of the test. The control of weeds was evaluated in each experimental test at 28 days after treatment (DAT), 14 DAT for crops. The results, shown as an average of the replications, were compared with results observed in untreated control flats in the same tests. Percent weed control was determined by a method similar to the 0 to 100 rating system disclosed in “Research Methods in Weed Science,” 2nd ed., B. Truelove, Ed.; Southern Weed Science Society; Auburn University, Auburn, Ala., 1977.

In the next data set the test system is morningglory (MG). The experiment in a line: PRE greenhouse, 2,4-DC + sulfentrazone, % control. It is filed as in vivo, Ipomoea spp. The note with it: 28 DAT, g ai/ha by row: r7-35 2,4-DC 31.2/62.5/125/250/375 (3 rows each) + sulfentrazone 105/210/315 (cycling), r37-41 2,4-DC 31.2/62.5/125/250/375, r42-44 sulfentrazone 105/210/315. As to the method:
as §1, §2, §3

Another data set relates to Palmer amaranth (PA). The data set is described as follows: PRE greenhouse, 2,4-DC + sulfentrazone, % control. It is filed as in vivo, Amaranthus palmeri. The note with it: 28 DAT, g ai/ha by row: r7-35 2,4-DC 31.2/62.5/125/250/375 (3 rows each) + sulfentrazone 105/210/315 (cycling), r37-41 2,4-DC 31.2/62.5/125/250/375, r42-44 sulfentrazone 105/210/315. As for the experimental part: as §1, §2, §3

The test system of the next data set is sedges. The data set is described as follows: Ex26 PRE greenhouse. It is filed as in vivo. The conditions noted are these: 28 DAT, weed and rate in the words. The source says: Treatments were applied at the time of planting to yellow nutsedge, purple nutsedge, and benghal dayflower. […] Flats were watered and fertilized routinely after treatment application.

The subject of another data set is Corn. The conditions noted are these: 21 DAT, PRE. An excerpt: (Ipomoea spp.); Italian ryegrass (Lolium perenne L. ssp. multiflorum, LOLMU). Crops tested included corn, wheat, cotton, cowpea, and bush bean.
Palmer amaranth, common ragweed, Pennsylvania smartweed, velvetleaf, wild oat, green foxtail, morningglory, and Italian ryegrass were screened. […] Thereafter flats were watered and fertilized routinely.

[3] abbreviates: r17-19 2,4-DC 50/100/200, r20-22 sulfentrazone 105/210/315, 105 g ai/ha.
Setting [4] is: r17-19 2,4-DC 50/100/200, r20-22 sulfentrazone 105/210/315, 315 g ai/ha.
The mark [5] stands for this setting: r17-19 2,4-DC 50/100/200, r20-22 sulfentrazone 105/210/315, 210 g ai/ha.

The structures appear in SMILES notation. Where two headings read alike, the source gives them in different places.

With `Cc1nn(-c2cc(NS(C)(=O)=O)c(Cl)cc2Cl)c(=O)n1C(F)F` [sulfentrazone], the “% Control PN” value in the data set with purple nutsedge (PN) (setting [3]) was 77%; in the data set with purple nutsedge (PN) (setting [4]) it was 83%. Further, the “weed control in words” value in the data set with weeds is “at 280 g provided control of all weeds except quackgrass, annual bluegrass, and blackgrass”; in the data set on weeds; Sugarcane (CTC20), “alone controlled hairy beggarticks at 315 g; all other weeds were controlled with all rates”; in the data set on sedges it was “alone controlled yellow nutsedge at all rates, benghal dayflower at 210 or 315 g and did not control purple nutsedge at any rate”. Further, the “% Control BD” value in the data set with benghal dayflower (BD) (setting [3]) was found to be 72%; in the data set with benghal dayflower (BD) (setting [5]) it was 88%; with benghal dayflower (BD) (setting [4]) it was 90%. For the same compound, the “% Control PS” value in data set [1] was 100%. The “% Control VL” value in the data set with velvetleaf (VL) was found to be 100%. Further, the “% Control GF” value in the data set with green foxtail (GF) (r37-41 2,4-DC 31.2/62.5/125/250/375, r42-44 sulfentrazone 105/210/315, 105 g ai/ha) came out at 84%; with green foxtail (GF) (r37-41 2,4-DC 31.2/62.5/125/250/375, r42-44 sulfentrazone 105/210/315, 210 g ai/ha) it was 100%. For the same compound, the “crop safety in words” value in data set [2] was “alone was safe on corn and bush bean only at 105 g, wheat and cowpea at 105 or 210 g 14 DAT”. Also, the “% Control YN” value stood at 85% in the data set with yellow nutsedge (YN) (setting [3]), 95% with yellow nutsedge (YN) (setting [5]) and 100% in the data set on yellow nutsedge (YN) (setting [4]). In addition, in the data set on morningglory (MG), the “% Control MG” value amounted to 100%. Moreover, the “% Control PA” value in the data set on Palmer amaranth (PA) was determined as 100%. Besides, the “crop injury, Sulfentrazone alone” value in the data set with Corn (sulfentrazone 105 g ai/ha) is recorded as 3%; with Corn (sulfentrazone 210 g ai/ha), 10%; in the data set on Corn (sulfentrazone 315 g ai/ha) it was 38%.
